# System: B. burgdorferi strain N40
# Test: microbe, parasite or virus in culture
# Assay type: cell-based, Borrelia burgdorferi
# Settings: Borreliella burgdorferi, N40; bioluminescence; stated after the 72 h results, time not given explicitly; read-out: IC50 (loss of B. burgdorferi vitality)
# Protocol: B. burgdorferi N40 strain carrying a firefly luciferase gene (Bbluc), which is a derivative of the N40D10/E9 clone, was used in this study and is labeled as N40 throughout. N40 was cultured at 33 °C in Barbour-Stoenner-Kelly-II (BSK-II) medium supplemented with 6% rabbit serum (BSKII-RS). Bacterial counts were determined under 400× magnification using a hemocytometer and a dark field microscope.
# The luciferase expressing B. burgdorferi N40 strain was grown to a density of ~10^8 spirochetes/mL and divided into two aliquots. One aliquot was incubated at 60 °C for 30 min to kill the spirochetes. […] The culture was mixed with the substrate by shaking in the dark, incubated at 37 °C for 5 min in a Spectramax M2 microplate reader (Molecular Devices, San Jose, CA, USA) and the bioluminescence measured. […]
# Nucleosides and nucleoside analogs were prepared as sterile 1 mM stock solutions in distilled water (MSeA, IADO, FSBA, and dEt-ImmA) or in DMSO (PurTA). […] Photon emission due to luciferase activity was measured at three time points, after: (a) 24 h, (b) 72 h, and (c) 7 days of treatments to observe the effect of inhibitors on B. burgdorferi culture. At the end of each time point, bioluminescence was measured as described above. […]
compound,measurement,value
"Nc1ncnc2c1ncn2[C@@H]1O[C@H](CI)[C@@H](O)[C@H]1O [IADO, 5′-deoxy-5′-iodoadenosine]",IC50,~1000 nM

# — article PMC7557402, “Evaluation of Nucleoside Analogs as Antimicrobials Targeting Unique Enzymes in Borrelia burgdorferi” (Pathogens, 2020)
